Experimental data taken from PubChem BioAssay (NCI).
“And” between values parts separate entries of the source, which are not always exact repeats. Equal entries are not always repeated.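 Grown in 96-well plates, cells were treated for 48 hours with each compound at five concentrations. Insufficient inhibition: endpoint recorded as highest concentration tested. GI50: concentration for 50% inhibition of growth. At the TGI there is no net growth.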

Columns and labels:
Experiment in all cases: NCI anticancer screen, dose series, 48 h
SF-539 CNS = tested on: SF-539 CNS
CAKI-1 renal = tested on: CAKI-1 renal
UACC-257 melanoma = tested on: UACC-257 melanoma
HL-60(TB) leukemia = tested on: HL-60(TB) leukemia
HCT-116 colon = tested on: HCT-116 colon
EKVX NSCLC = tested on: EKVX NSCLC
TK-10 renal = tested on: TK-10 renal
HT29 colon = tested on: HT29 colon
NCI/ADR-RES ovarian = tested on: NCI/ADR-RES ovarian
SK-OV-3 ovarian = tested on: SK-OV-3 ovarian

Compound | GI50 (SF-539 CNS) | TGI (SF-539 CNS) | GI50 (CAKI-1 renal) | TGI (CAKI-1 renal) | GI50 (UACC-257 melanoma) | TGI (UACC-257 melanoma) | GI50 (HL-60(TB) leukemia) | TGI (HL-60(TB) leukemia) | GI50 (HCT-116 colon) | TGI (HCT-116 colon) | GI50 (EKVX NSCLC) | TGI (EKVX NSCLC) | GI50 (TK-10 renal) | TGI (TK-10 renal) | GI50 (HT29 colon) | TGI (HT29 colon) | GI50 (NCI/ADR-RES ovarian) | TGI (NCI/ADR-RES ovarian) | GI50 (SK-OV-3 ovarian) | TGI (SK-OV-3 ovarian)
Nc1nc(N)c2cc(Sc3ccc(Cl)cc3)ccc2n1 | 3100 nM | 22.3 µM | 3.25 µM | 16.1 µM | 1410 nM | 5.72 µM | 600 nM | 2.47 µM | 327 nM | 1.39 µM | 1660 nM | 17.6 µM | 4.91 µM | 17.2 µM | 516 nM | 2.4 µM | 793 nM | 16.1 µM |  | 
CCN1C2=C(SC(=S)C1=C1SC(C(=O)c3ccccc3)=C(C(=O)c3ccccc3)S1)SC(=Nc1ccccc1)C2=O | 14400 nM | > 100 µM | 48 µM | > 100 µM | > 100000 nM | > 100 µM | > 100000 nM | > 100 µM | 2660 nM | 38.7 µM | 80400 nM | > 100 µM | 13.3 µM | > 83.7 µM | 16500 nM | > 100 µM | > 73900 nM | > 100 µM | > 96700 nM | > 100 µM
CC[n+]1c(/C=C/c2ccc(N3CCCC3)cc2)cccc1/C=C/c1ccc(N2CCCC2)cc1 | 274 nM | 1.44 µM | 0.145 µM | 1.36 µM | 190 nM | 0.773 µM | 49 nM and 391 nM |  | 83.8 nM | 1.28 µM | 83.2 nM | 2.08 µM | 0.359 µM | 2.38 µM | 115 nM | 0.375 µM | 466 nM | 1.95 µM | 228 nM | 0.897 µM
Clc1ccc(Nc2ncnc3ccccc23)cc1 | > 100000 nM | > 100 µM | 13.1 µM | 61.1 µM | 49900 nM | > 100 µM | 36700 nM | > 100 µM | 81500 nM | > 100 µM | 10100 nM | > 100 µM | 2.79 µM | 31 µM | 55300 nM | > 100 µM | 53700 nM | > 100 µM | 91100 nM | > 100 µM
COc1ncnn2ccc(-c3cnc4nc(C)n(Cc5nnc(C(C)F)o5)c4c3)c12 (stereo unspecified) | 218 nM | 0.674 µM | 0.0613 µM | > 100 µM | 265 nM | > 100 µM | 367 nM |  | 41 nM | > 100 µM | 272 nM | > 36.4 µM | 0.367 µM | > 100 µM | 253 nM | 0.631 µM | 409 nM | > 29.2 µM | 71.6 nM | > 100 µM
COc1cc2cc(Oc3ccc(NC(=O)Nc4ccc(F)c(C(F)(F)F)c4)cc3)c(C)nc2cc1OCCN1CCOCC1 | 1770 nM | 3.44 µM | 2.06 µM | 9.55 µM | 1750 nM | 5.17 µM | 2380 nM | 6.14 µM | 1110 nM | 11.2 µM | 2530 nM | 20.7 µM | 4.94 µM | 25.1 µM | 3070 nM | 21.8 µM | 2560 nM | 12.1 µM | 3760 nM | 26.7 µM
CO[C@@H]1[C@H](N(C)C(=O)c2ccccc2)C[C@@H]2O[C@]1(C)n1c3ccccc3c3c4c(c5c6ccccc6n2c5c31)C(=O)NC4=O | 1080 nM | 59.8 µM | 0.232 µM | 2.66 µM | > 100000 nM | > 100 µM | > 100000 nM | > 100 µM | 638 nM | > 100 µM | 858 nM | > 100 µM |  |  | 745 nM | > 100 µM | 5750 nM | > 100 µM | 1670 nM | > 100 µM
CSc1nc(SC)c2c(C)cn(Cc3ccccc3)c2n1 |  | > 100 µM |  | > 100 µM |  |  |  | > 100 µM |  | > 100 µM |  | > 100 µM |  | > 100 µM |  | > 100 µM |  | > 100 µM |  | > 100 µM
Cc1cc(S(=O)(=O)Nc2n[nH]c(-c3ccc(Cl)cc3)c2C#N)c(S)cc1Cl | > 100000 nM | > 100 µM | 30.3 µM | > 100 µM | > 100000 nM | > 100 µM | > 100000 nM | > 100 µM |  |  | > 100000 nM | > 100 µM | > 100 µM | > 100 µM | > 100000 nM | > 100 µM | > 100000 nM | > 100 µM | > 100000 nM | > 100 µM
CCOC(=O)c1cc2c(OC)cc(OC)cc2oc1=O |  | > 100 µM |  | > 100 µM |  | > 100 µM |  | > 100 µM |  | > 100 µM |  | > 100 µM |  | > 100 µM |  | > 100 µM |  | > 100 µM |  | 
CC(=O)NS(=O)(=O)c1ccc(-n2nc(-c3ccccc3)cc2-c2cc(O)ccc2O)cc1 |  |  | > 100 µM | > 100 µM | > 100000 nM | > 100 µM | 61800 nM | > 100 µM | 27200 nM | > 100 µM | > 100000 nM | > 100 µM | 10.9 µM | > 100 µM | > 100000 nM | > 100 µM | > 100000 nM | > 100 µM |  | 
